A short description of the series: log P determination by HPLC on a phase inversion column (C18), EEC Directive 79/831 Annex V.A8. The series is classed as physicochemical. Conditions: HPLC-MS method a): C18 column, gradient 10% to 95% acetonitrile (0.1% formic acid) / water (0.09% formic acid), oven 55° C.
A word on the chromatographic logP: it is lipophilicity estimated from chromatographic retention. Compound `Cn1nc(C(F)(F)C(F)(F)F)c(C(F)(F)F)c1-n1cc(-c2ccc(Cl)c(C(=O)NC3(C#N)CC3)c2)cn1` [Compound (IIIa), 2-Chloro-N-1-cyano-cyclopropyl-5-[2′-methyl-5′-(pentafluoroethyl)-4′-(trifluoromethyl)-2′H-1,3′-bipyrazol-4-yl]benzamide] gave a chromatographic logP of 3.72. The value for `Cn1nc(C(F)(F)C(F)(F)F)c(C(F)(F)F)c1C(=O)Nc1ccc(Cl)c(C(=O)NCc2ccccc2)c1` [Compound (IIa), N-[4-chloro-3-(benzylcarbamoyl)phenyl]-1-methyl-3-(pentafluoroethyl)-4-(trifluoromethyl)-1H-pyrazole-5-carboxamide] was 3.9; that for `Cn1nc(C(F)(F)C(F)(F)F)c(C(F)(F)F)c1-n1cc(Br)cn1` [Intermediate (12), 4-bromo-2′-methyl-5′-(pentafluoroethyl)-4′-(trifluoromethyl)-2′H-1,3′-bipyrazole] was 4.14.

The record behind these values is patent US9725415B2, “Process for the preparation of 5-fluoro-1H-pyrazoles” (BAYER CROPSCIENCE AKTIENGESELLSCHAFT, priority 2013, dated 2017).
